These results are taken from patent US9169315B2, “Heparin cofactor II fragments with anti-inflammatory and anti-coagulant activity” (XIMMUNE AB, priority 2009, dated 2015).

Read-outs that look alike come from different tables or passages of the source. No end group written: not given here.

One may read the MIC as the least concentration at which growth counts as inhibited. Read a high MIC as weaker potency.

For data set [1], the system named is S. pneumoniae. Format: cell-based. The protocol:
(§1) MIC assay was carried out by a microtiter broth dilution method as previously described in the NCSLA guidelines (Wiegand, I., Hilpert, K. & Hancock, R. E. Agar and broth dilution methods to determine the minimal inhibitory concentration (MIC) of antimicrobial substances. Nat Protoc 3, 163-175 (2008)). In brief, fresh overnight colonies were suspended to a turbidity of 0.5 units and further diluted in Mueller-Hinton broth (Becton Dickinson). For determination of MIC, peptides were dissolved in water at concentration 10 times higher than the required range by serial dilutions from a stock solution. Ten μl of each concentration was added to each corresponding well of a 96-well microtiter plate (polypropylene, Costar Corp.) and 90 μl of bacteria (1×10^5) in MH medium added. The plate was incubated at 37° C. for 16-18 h. MIC was taken as the lowest concentration where no visual growth of bacteria was detected.

The subject of data set [2] is S. pyogenes. Format: cell-based. Conditions: S. pyogenes AP1. The protocol:
as §1

In data set [3] the test system is P. aeruginosa. Type of data set: cell-based, Pseudomonas aeruginosa. The protocol:
as §1

Data set [4] deals with E. coli. Format: cell-based, Escherichia coli. As to the method:
as §1

In data set [5] the test system is E. faecalis. The experiment in a line: MIC, microtiter broth dilution. Format: cell-based. Conditions: E. faecalis Clinical isolate 2374. The protocol: as §1
For orientation: Dilution methods test growth across graded concentrations, often in twofold steps.

In data set [6] the test system is S. aureus. Type of data set: cell-based, Staphylococcus aureus. As to the method:
as §1

Data set [7] has as its system human blood. As to conditions: corresponding number for LL-37 (Malmsten et al., in manuscript); cited from earlier work.

Take “ILRWPWWPWRRK-NH2 [Omiganan, reference compound]”: the MIC was 1.25 µM in data set [1] (S. pneumoniae Clinical isolate I-95); 160 µM in data set [1] (S. pneumoniae Clinical isolate I-104); 10 µM in data set [1] (S. pneumoniae Clinical isolate PJ1354); 5 µM in data set [1] (S. pneumoniae D39); 2.5 µM in data set [1] (S. pneumoniae TIGR4); 5 µM in data set [2]. Further, the MIC in data set [3] (P. aeruginosa ATCC 27853) was 160 µM; in data set [3] (P. aeruginosa Clinical isolate 10.5), 40 µM; in data set [3] (P. aeruginosa Clinical isolate 13.2), 40 µM; in data set [3] (P. aeruginosa Clinical isolate 23.1), 40 µM; in data set [3] (P. aeruginosa Clinical isolate 27.1), greater than 160 µM; in data set [3] (P. aeruginosa Clinical isolate 51.1) it was 80 µM. The MIC worked out at 20 µM in data set [3] (P. aeruginosa Clinical isolate 62.1); 20 µM in data set [3] (P. aeruginosa Clinical isolate 15159); 20 µM in data set [3] (P. aeruginosa Clinical isolate 18488); 20 µM in data set [4]; 20 µM in data set [4] (E. coli Clinical isolate 47.1); 10 µM in data set [4] (E. coli Clinical isolate 49.1). The MIC in data set [5] turned out to be 160 µM; in data set [6] (S. aureus ATCC 29213) it was 10 µM; in data set [6] (S. aureus Clinical isolate 1086), 10 µM; in data set [6] (S. aureus Clinical isolate 1088), 20 µM; in data set [6] (S. aureus Clinical isolate 1090), 80 µM; in data set [6] (S. aureus Clinical isolate 14312), 20 µM. The compound also had a minimum inhibitory concentration (MIC) in data set [6] (S. aureus Clinical isolate 16065) of 5 µM.
For the compound `CC[C@H](C)[C@H](NC(=O)[C@H](CCCCN)NC(=O)[C@H](CCC(=O)O)NC(=O)[C@H](CCCCN)NC(=O)[C@H](CO)NC(=O)[C@H](CCCCN)NC(=O)[C@H](CCCNC(=N)N)NC(=O)[C@H](Cc1ccccc1)NC(=O)[C@H](Cc1ccccc1)NC(=O)[C@H](CC(=O)O)NC(=O)CNC(=O)[C@H](CC(C)C)NC(=O)[C@@H](N)CC(C)C)C(=O)NCC(=O)N[C@@H](CCCCN)C(=O)N[C@@H](CCC(=O)O)C(=O)N[C@@H](Cc1ccccc1)C(=O)N[C@@H](CCCCN)C(=O)N[C@@H](CCCNC(=N)N)C(=O)N[C@H](C(=O)N[C@H](C(=O)N[C@@H](CCC(N)=O)C(=O)N[C@@H](CCCNC(=N)N)C(=O)N[C@H](C(=O)N[C@@H](CCCCN)C(=O)N[C@@H](CC(=O)O)C(=O)N[C@@H](Cc1ccccc1)C(=O)N[C@@H](CC(C)C)C(=O)N[C@@H](CCCNC(=N)N)C(=O)N[C@@H](CC(N)=O)C(=O)N[C@@H](CC(C)C)C(=O)N[C@H](C(=O)N1CCC[C@H]1C(=O)N[C@@H](CCCNC(=N)N)C(=O)N[C@H](C(=O)N[C@@H](CCC(=O)O)C(=O)N[C@@H](CO)C(=O)O)[C@@H](C)O)C(C)C)[C@@H](C)CC)C(C)C)[C@@H](C)CC` [LL-37], the “Accompanying hemolysis in infected human blood” value in data set [7] was roughly 8%.
